Assay results: patent EP0908457B1, “3-(1,2-benzisothiazol- and isoxazol-5-Y1)-2,4(1H,3H)-pyrimidinedione or thione and 3-(1,2-benzisothiazol- and isoxazol-5-y1)-4(3H)-pyrimidinone or thione herbicidal agents” (BASF AKTIENGESELLSCHAFT, priority 1997, dated 1999)

Legend:
[1] = test system: Echinochloa oryzoides (Ard.) Fritsch.; test: Preemergence weed control under flooded paddy conditions, ECHORC (Watergrass (Calif.)); assay type: in vivo; conditions: preemergence, flooded paddy; note: meaning of each grade not given here
Cyperus iria = test: Preemergence weed control under flooded paddy conditions, CYPIR (Rice Flatsedge); assay type: in vivo; conditions: preemergence, flooded paddy; note: meaning of each grade not given here
[2] = test system: Cyperus serotinus, Rottb.; test: Preemergence weed control under flooded paddy conditions, CYPSE (Flatsedge); assay type: in vivo; conditions: preemergence; note: meaning of each grade not given here
[3] = test system: Monochoria vaginalis, Presl.; test: Preemergence weed control under flooded paddy conditions, MOOVA (Monochoria); assay type: in vivo; conditions: preemergence, flooded paddy; note: meaning of each grade not given here
Sagittaria pygmaea, L. = test: Preemergence weed control under flooded paddy conditions, SAGPY (Arrowhead (Pygmaea)); assay type: in vivo; conditions: preemergence, flooded paddy; note: meaning of each grade not given here
[4] = test system: Oryza sativa, (L.) Tebonnet; test: Rice tolerance to post-transplant applications under flooded paddy conditions (Example 187), ORYSAT (Rice, Tebonnet); conditions: for herbicidal effect rating ORYSAT: rated 3-4 weeks after treatment; for herbicidal effect rating, ORYSAT (rice tolerance): rated three to four weeks after treatment; for herbicidal effect rating ORYSAT: meaning of each grade not given here
[5] = Rate 0.0320 kg/ha, rated 3-4 weeks after treatment
[6] = Rate 0.0620 kg/ha, rated 3-4 weeks after treatment
[7] = Rate 0.1250 kg/ha, rated 3-4 weeks after treatment
[8] = Rate 0.2500 kg/ha, rated 3-4 weeks after treatment
[9] = 0.0313 kg/ha, rated three to four weeks after treatment
[10] = 0.0625 kg/ha, rated three to four weeks after treatment
[11] = 0.1250 kg/ha, rated three to four weeks after treatment
[12] = 0.2500 kg/ha, rated three to four weeks after treatment

Compound: CC=CCOC(=O)C(C)(C)Oc1ccc(C)cc1-c1nsc2ccc(-n3c(=O)cc(C(F)(F)F)n(C)c3=O)cc12 [Example 529, Propionic acid, 2-{{2-{5-[3,6-dihydro-3-methyl-2,6-dioxo-4-(trifluoromethyl)-1(2H)-pyrimidinyl]-1,2-benzisothiazol-3-yl}-p-tolyl}oxy}-2-methyl-, 2-butenyl ester]
- herbicidal effect rating, ECHORC [1, 5]: 7.0
- herbicidal effect rating, ECHORC [1, 6]: 9.0
- herbicidal effect rating, ECHORC [1, 7]: 9.0
- herbicidal effect rating, ECHORC [1, 8]: 9.0
- herbicidal effect rating, CYPIR (Cyperus iria; [5]): 3.0
- herbicidal effect rating, CYPIR (Cyperus iria; [6]): 3.0
- herbicidal effect rating, CYPIR (Cyperus iria; [7]): 3.0
- herbicidal effect rating, CYPIR (Cyperus iria; [8]): 0.0
- herbicidal effect rating, CYPSE [2, 5]: 0.0
- herbicidal effect rating, CYPSE [2, 6]: 0.0
- herbicidal effect rating, CYPSE [2, 7]: 0.0
- herbicidal effect rating, CYPSE [2, 8]: 0.0
- herbicidal effect rating, MOOVA [3, 5]: 3.0
- herbicidal effect rating, MOOVA [3, 6]: 3.0
- herbicidal effect rating, MOOVA [3, 7]: 3.0
- herbicidal effect rating, MOOVA [3, 8]: 0.0
- herbicidal effect rating, SAGPY (Sagittaria pygmaea, L.; [5]): 9.0
- herbicidal effect rating, SAGPY (Sagittaria pygmaea, L.; [6]): 9.0
- herbicidal effect rating, SAGPY (Sagittaria pygmaea, L.; [7]): 9.0
- herbicidal effect rating, SAGPY (Sagittaria pygmaea, L.; [8]): 9.0
- herbicidal effect rating ORYSAT ([4]; Rate 0.0320 kg/ha): 0.0
- herbicidal effect rating ORYSAT ([4]; Rate 0.0620 kg/ha): 0.0
- herbicidal effect rating ORYSAT ([4]; Rate 0.1250 kg/ha): 3.0
- herbicidal effect rating ORYSAT ([4]; Rate 0.2500 kg/ha): 9.0

Compound: Cc1ccc(OC(C)C)c(-c2nsc3ccc(-n4c(=O)cc(C(F)(F)F)n(C)c4=O)cc23)c1 [Example 59, 3-[3-(6-Isopropoxy-m-tolyl)-1,2-benzisothiazol-5-yl]-1-methyl-6-(trifluoromethyl)-2,4(1H,3H)-pyrimidinedione]
- herbicidal effect rating, ECHORC [1, 9]: 9.0
- herbicidal effect rating, ECHORC [1, 10]: 9.0
- herbicidal effect rating, ECHORC [1, 11]: 9.0
- herbicidal effect rating, ECHORC [1, 12]: 9.0
- herbicidal effect rating, CYPIR (Cyperus iria; [9]): 7.0
- herbicidal effect rating, CYPIR (Cyperus iria; [10]): 7.0
- herbicidal effect rating, CYPIR (Cyperus iria; [11]): 8.0
- herbicidal effect rating, CYPIR (Cyperus iria; [12]): 9.0
- herbicidal effect rating, CYPSE [2, 9]: 0.0
- herbicidal effect rating, CYPSE [2, 10]: 0.0
- herbicidal effect rating, CYPSE [2, 11]: 0.0
- herbicidal effect rating, CYPSE [2, 12]: 0.0
- herbicidal effect rating, MOOVA [3, 9]: 9.0
- herbicidal effect rating, MOOVA [3, 10]: 9.0
- herbicidal effect rating, MOOVA [3, 11]: 9.0
- herbicidal effect rating, MOOVA [3, 12]: 9.0
- herbicidal effect rating, SAGPY (Sagittaria pygmaea, L.; [9]): 0.0
- herbicidal effect rating, SAGPY (Sagittaria pygmaea, L.; [10]): 0.0
- herbicidal effect rating, SAGPY (Sagittaria pygmaea, L.; [11]): 0.0
- herbicidal effect rating, SAGPY (Sagittaria pygmaea, L.; [12]): 0.0
- herbicidal effect rating, ORYSAT (rice tolerance) ([4]; 0.0313 kg/ha): 2.0
- herbicidal effect rating, ORYSAT (rice tolerance) ([4]; 0.0625 kg/ha): 3.0
- herbicidal effect rating, ORYSAT (rice tolerance) ([4]; 0.1250 kg/ha): 4.0
- herbicidal effect rating, ORYSAT (rice tolerance) ([4]; 0.2500 kg/ha): 4.0

Compound: Cc1ccc(OCC(=O)OCC(C)(C)Cc2ccccc2)c(-c2nsc3ccc(-n4c(=O)cc(C(F)(F)F)n(C)c4=O)cc23)c1 [Example 527, Acetic acid, {{2-{5-[3,6-dihydro-3-methyl-2,6-dioxo-4-(trifluoromethyl)-1(2H)-pyrimidinyl)-1,2-benzisothiazol-3-yl}-p-tolyl}oxy}-, 2,2-dimethyl-3-phenylpropyl ester]
- herbicidal effect rating, ECHORC [1, 5]: 3.0
- herbicidal effect rating, ECHORC [1, 6]: 8.0
- herbicidal effect rating, ECHORC [1, 7]: 9.0
- herbicidal effect rating, ECHORC [1, 8]: 9.0
- herbicidal effect rating, CYPIR (Cyperus iria; [5]): 2.0
- herbicidal effect rating, CYPIR (Cyperus iria; [6]): 2.0
- herbicidal effect rating, CYPIR (Cyperus iria; [7]): 4.0
- herbicidal effect rating, CYPIR (Cyperus iria; [8]): 4.0
- herbicidal effect rating, CYPSE [2, 5]: 0.0
- herbicidal effect rating, CYPSE [2, 6]: 0.0
- herbicidal effect rating, CYPSE [2, 7]: 0.0
- herbicidal effect rating, CYPSE [2, 8]: 0.0
- herbicidal effect rating, MOOVA [3, 5]: 9.0
- herbicidal effect rating, MOOVA [3, 6]: 9.0
- herbicidal effect rating, MOOVA [3, 7]: 9.0
- herbicidal effect rating, MOOVA [3, 8]: 9.0
- herbicidal effect rating, SAGPY (Sagittaria pygmaea, L.; [5]): 0.0
- herbicidal effect rating, SAGPY (Sagittaria pygmaea, L.; [6]): 0.0
- herbicidal effect rating, SAGPY (Sagittaria pygmaea, L.; [7]): 0.0
- herbicidal effect rating, SAGPY (Sagittaria pygmaea, L.; [8]): 0.0
- herbicidal effect rating ORYSAT ([4]; Rate 0.0320 kg/ha): 2.0
- herbicidal effect rating ORYSAT ([4]; Rate 0.0620 kg/ha): 2.5
- herbicidal effect rating ORYSAT ([4]; Rate 0.1250 kg/ha): 2.5
- herbicidal effect rating ORYSAT ([4]; Rate 0.2500 kg/ha): 4.0
